In PubChem BioAssay (NCI):
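Interpolation was linear, between the two tested concentrations surrounding the appropriate level; five concentrations were tested over 48 hours in 96-well plates. GI50: concentration for 50% inhibition of growth. Definition used: TGI = concentration required for complete inhibition of growth.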

Legend:
Experiment in all cases: inhibition of tumour cell growth, NCI panel, 48 h
[1] = test system: SW-620 colon
[2] = test system: RXF 393 renal
[3] = test system: PC-3 prostate
[4] = test system: HT29 colon
[5] = test system: A549 NSCLC
[6] = test system: SNB-75 CNS
[7] = test system: KM12 colon
[8] = test system: RPMI-8226 leukemia
[9] = test system: BT-549 breast
[10] = test system: COLO 205 colon
[11] = test system: MDA-MB-231 breast
[12] = test system: SK-OV-3 ovarian
[13] = test system: DU-145 prostate
[14] = test system: MDA-MB-435
[15] = test system: UO-31 renal
[16] = test system: M14 melanoma
[17] = test system: SK-MEL-28 melanoma
[18] = test system: 786-0 renal
[19] = test system: MOLT-4 leukemia
[20] = test system: MALME-3M melanoma
[21] = test system: SN12C renal
[22] = test system: NCI-H460 lung
[23] = test system: LOX IMVI melanoma
[24] = test system: MCF7 breast
[25] = test system: HCT-15 colon
[26] = test system: HCT-116 colon
[27] = test system: OVCAR-5 ovarian
[28] = test system: NCI-H23 lung
[29] = test system: U251 CNS

COc1cnc2c(c1)C(=O)c1c-2n(CCCn2ccnc2)c(=O)c2cc(OC)c(OC)cc12
GI50 [1]: 127 nM | TGI [1]: 2130 nM | GI50 [2]: 354 nM | TGI [2]: 2190 nM | GI50 [3]: 631 nM | TGI [3]: 8450 nM | GI50 [4]: 242 nM | TGI [4]: 1750 nM | GI50 [5]: 465 nM | TGI [5]: 11700 nM | GI50 [6]: 67.3 nM | TGI [6]: 1210 nM | GI50 [7]: 1670 nM | TGI [7]: 7690 nM | GI50 [8]: 167 nM | TGI [8]: 3580 nM | GI50 [9]: 416 nM | TGI [9]: 6620 nM | GI50 [10]: 654 nM | TGI [10]: 2380 nM | GI50 [11]: 3550 nM | TGI [11]: 11900 nM | GI50 [12]: 119 nM | TGI [12]: 2270 nM | GI50 [13]: 60.8 nM | TGI [13]: 1900 nM | GI50 [14]: 710 nM | TGI [14]: 4790 nM | GI50 [15]: 65.9 nM | TGI [15]: 1370 nM | GI50 [16]: 60 nM | TGI [16]: 1410 nM | GI50 [17]: 1310 nM | TGI [17]: 3610 nM | GI50 [18]: 55.1 nM | TGI [18]: 1280 nM | GI50 [19]: 36.7 nM | TGI [19]: 2530 nM | GI50 [20]: 1390 nM | TGI [20]: 3040 nM | GI50 [21]: 56.3 nM | TGI [21]: 4020 nM | GI50 [22]: 36.5 nM | TGI [22]: 1320 nM | GI50 [23]: 42.2 nM | TGI [23]: 1120 nM | GI50 [24]: 29.8 nM | TGI [24]: 1400 nM | GI50 [25]: 1210 nM | TGI [25]: 3140 nM | GI50 [26]: 113 nM | TGI [26]: 1710 nM | GI50 [27]: 1030 nM | TGI [27]: 3100 nM | GI50 [28]: 72.1 nM | TGI [28]: 1620 nM | GI50 [29]: 48.1 nM | TGI [29]: 3280 nM
